Legend:
[1] = target: Tyrosine-protein kinase JAK1 (Mus musculus, UniProt P52332); test: Inhibition of FLAG-tagged mouse JAK1 expressed in insect Sf9 cells using biotin-EQEDEPEGDYFEWLE-NH2 as substrate
[2] = target: Tyrosine-protein kinase JAK1 (Homo sapiens, UniProt P23458); test: Inhibition of JAK1 (unknown origin) using tyrosine 6 peptide as substrate by z'-lyte assay
[3] = target: Non-receptor tyrosine-protein kinase TYK2 (Homo sapiens, UniProt P29597); test: Inhibition of TYK2 (unknown origin) using tyrosine 3 peptide as substrate by z'-lyte assay
[4] = target: T1, Tyrosine-protein kinase JAK3 (Homo sapiens, UniProt P52333); test: Inhibition of JAK3 (unknown origin) using tyrosine 6 peptide as substrate by z'-lyte assay
T1 sequence (P52333 whole entry): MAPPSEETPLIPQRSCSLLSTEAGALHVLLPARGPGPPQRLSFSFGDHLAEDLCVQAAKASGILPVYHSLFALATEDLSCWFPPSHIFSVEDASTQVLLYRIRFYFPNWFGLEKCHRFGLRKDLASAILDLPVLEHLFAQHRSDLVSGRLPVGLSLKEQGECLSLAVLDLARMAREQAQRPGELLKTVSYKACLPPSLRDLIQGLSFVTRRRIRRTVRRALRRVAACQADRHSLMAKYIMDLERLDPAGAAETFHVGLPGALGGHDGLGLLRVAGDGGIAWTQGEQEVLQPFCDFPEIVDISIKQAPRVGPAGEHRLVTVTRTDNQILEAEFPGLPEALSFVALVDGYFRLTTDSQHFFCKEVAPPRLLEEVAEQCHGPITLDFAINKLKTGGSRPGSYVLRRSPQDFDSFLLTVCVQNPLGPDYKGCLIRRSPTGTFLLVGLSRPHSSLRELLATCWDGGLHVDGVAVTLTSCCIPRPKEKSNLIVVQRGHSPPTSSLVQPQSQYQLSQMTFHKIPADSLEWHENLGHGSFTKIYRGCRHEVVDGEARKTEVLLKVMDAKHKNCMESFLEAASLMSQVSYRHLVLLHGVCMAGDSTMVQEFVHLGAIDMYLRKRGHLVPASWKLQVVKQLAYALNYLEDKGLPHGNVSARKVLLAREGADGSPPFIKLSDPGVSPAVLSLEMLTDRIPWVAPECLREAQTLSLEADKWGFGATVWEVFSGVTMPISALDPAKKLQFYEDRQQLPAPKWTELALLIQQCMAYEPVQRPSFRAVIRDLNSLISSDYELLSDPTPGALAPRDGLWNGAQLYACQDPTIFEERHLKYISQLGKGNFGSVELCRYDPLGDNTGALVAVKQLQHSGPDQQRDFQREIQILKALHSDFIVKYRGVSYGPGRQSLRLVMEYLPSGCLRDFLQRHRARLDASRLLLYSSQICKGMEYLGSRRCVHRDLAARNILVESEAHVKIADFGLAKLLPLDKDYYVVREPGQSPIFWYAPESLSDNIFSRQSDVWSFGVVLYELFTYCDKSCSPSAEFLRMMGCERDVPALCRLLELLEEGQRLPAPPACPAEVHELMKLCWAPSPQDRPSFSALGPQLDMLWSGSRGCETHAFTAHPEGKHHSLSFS

[5] = target: Tyrosine-protein kinase JAK2 (Homo sapiens, UniProt O60674); test: Inhibition of JAK2 (unknown origin) using tyrosine 6 peptide as substrate by z'-lyte assay
Sequence of Tyrosine-protein kinase JAK2 (O60674 whole entry): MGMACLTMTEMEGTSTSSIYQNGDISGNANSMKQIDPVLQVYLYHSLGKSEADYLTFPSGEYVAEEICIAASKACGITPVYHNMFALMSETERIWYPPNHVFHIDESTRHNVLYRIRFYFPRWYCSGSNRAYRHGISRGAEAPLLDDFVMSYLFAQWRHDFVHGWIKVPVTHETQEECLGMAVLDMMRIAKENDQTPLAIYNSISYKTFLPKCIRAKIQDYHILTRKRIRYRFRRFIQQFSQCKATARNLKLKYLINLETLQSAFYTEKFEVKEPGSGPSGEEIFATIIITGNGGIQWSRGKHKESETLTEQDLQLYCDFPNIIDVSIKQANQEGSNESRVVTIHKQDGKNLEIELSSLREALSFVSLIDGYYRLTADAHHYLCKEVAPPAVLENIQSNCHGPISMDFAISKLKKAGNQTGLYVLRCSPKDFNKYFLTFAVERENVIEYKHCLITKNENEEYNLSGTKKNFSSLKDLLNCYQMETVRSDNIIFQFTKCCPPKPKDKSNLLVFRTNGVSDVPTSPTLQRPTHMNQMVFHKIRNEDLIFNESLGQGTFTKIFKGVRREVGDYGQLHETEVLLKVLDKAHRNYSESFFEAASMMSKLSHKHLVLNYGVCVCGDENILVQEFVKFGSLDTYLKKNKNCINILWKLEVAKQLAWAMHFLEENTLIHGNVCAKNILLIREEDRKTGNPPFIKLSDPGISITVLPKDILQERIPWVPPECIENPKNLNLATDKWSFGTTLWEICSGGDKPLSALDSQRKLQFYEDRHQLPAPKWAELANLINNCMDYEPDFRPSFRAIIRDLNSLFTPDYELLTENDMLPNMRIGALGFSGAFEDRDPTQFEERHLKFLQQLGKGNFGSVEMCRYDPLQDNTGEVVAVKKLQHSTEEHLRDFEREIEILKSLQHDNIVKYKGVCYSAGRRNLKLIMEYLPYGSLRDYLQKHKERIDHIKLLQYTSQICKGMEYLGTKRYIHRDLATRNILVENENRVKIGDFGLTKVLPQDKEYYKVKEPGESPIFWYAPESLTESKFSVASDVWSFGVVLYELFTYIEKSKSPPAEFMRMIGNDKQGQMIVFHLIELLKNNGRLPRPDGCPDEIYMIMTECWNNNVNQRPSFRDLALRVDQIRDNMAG

Sequence of Non-receptor tyrosine-protein kinase TYK2 (P29597 whole entry): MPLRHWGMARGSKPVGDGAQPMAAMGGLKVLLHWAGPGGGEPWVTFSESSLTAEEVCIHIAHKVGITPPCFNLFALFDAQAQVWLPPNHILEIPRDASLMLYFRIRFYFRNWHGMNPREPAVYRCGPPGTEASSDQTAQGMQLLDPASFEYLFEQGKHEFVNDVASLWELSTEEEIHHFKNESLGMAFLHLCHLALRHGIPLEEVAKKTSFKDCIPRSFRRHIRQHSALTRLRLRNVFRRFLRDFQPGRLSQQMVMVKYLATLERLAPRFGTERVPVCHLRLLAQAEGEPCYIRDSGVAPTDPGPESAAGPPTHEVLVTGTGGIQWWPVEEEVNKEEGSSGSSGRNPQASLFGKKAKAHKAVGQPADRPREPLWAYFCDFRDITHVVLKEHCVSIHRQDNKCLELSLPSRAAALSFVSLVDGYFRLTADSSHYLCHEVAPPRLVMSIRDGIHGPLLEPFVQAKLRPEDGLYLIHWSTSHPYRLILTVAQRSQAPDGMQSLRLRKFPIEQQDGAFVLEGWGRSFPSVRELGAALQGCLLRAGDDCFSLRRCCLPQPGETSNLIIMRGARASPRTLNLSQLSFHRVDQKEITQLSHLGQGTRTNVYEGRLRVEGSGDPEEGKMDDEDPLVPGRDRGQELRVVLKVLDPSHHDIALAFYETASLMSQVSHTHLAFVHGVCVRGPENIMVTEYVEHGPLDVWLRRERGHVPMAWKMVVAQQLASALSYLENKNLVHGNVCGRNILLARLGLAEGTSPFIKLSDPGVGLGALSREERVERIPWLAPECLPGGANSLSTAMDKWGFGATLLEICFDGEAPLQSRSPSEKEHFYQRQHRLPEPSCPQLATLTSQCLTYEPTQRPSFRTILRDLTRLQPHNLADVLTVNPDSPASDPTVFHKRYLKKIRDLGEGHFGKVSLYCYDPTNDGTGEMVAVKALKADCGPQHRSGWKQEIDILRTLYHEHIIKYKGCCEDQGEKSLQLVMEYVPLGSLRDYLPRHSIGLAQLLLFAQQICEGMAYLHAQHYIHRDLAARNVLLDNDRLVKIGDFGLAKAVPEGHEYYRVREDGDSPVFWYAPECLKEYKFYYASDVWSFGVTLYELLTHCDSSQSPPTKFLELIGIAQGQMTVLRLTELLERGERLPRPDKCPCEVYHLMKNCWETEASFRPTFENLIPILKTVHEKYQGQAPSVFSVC
Sequence of Tyrosine-protein kinase JAK1 (Homo sapiens, UniProt P23458) (P23458 whole entry): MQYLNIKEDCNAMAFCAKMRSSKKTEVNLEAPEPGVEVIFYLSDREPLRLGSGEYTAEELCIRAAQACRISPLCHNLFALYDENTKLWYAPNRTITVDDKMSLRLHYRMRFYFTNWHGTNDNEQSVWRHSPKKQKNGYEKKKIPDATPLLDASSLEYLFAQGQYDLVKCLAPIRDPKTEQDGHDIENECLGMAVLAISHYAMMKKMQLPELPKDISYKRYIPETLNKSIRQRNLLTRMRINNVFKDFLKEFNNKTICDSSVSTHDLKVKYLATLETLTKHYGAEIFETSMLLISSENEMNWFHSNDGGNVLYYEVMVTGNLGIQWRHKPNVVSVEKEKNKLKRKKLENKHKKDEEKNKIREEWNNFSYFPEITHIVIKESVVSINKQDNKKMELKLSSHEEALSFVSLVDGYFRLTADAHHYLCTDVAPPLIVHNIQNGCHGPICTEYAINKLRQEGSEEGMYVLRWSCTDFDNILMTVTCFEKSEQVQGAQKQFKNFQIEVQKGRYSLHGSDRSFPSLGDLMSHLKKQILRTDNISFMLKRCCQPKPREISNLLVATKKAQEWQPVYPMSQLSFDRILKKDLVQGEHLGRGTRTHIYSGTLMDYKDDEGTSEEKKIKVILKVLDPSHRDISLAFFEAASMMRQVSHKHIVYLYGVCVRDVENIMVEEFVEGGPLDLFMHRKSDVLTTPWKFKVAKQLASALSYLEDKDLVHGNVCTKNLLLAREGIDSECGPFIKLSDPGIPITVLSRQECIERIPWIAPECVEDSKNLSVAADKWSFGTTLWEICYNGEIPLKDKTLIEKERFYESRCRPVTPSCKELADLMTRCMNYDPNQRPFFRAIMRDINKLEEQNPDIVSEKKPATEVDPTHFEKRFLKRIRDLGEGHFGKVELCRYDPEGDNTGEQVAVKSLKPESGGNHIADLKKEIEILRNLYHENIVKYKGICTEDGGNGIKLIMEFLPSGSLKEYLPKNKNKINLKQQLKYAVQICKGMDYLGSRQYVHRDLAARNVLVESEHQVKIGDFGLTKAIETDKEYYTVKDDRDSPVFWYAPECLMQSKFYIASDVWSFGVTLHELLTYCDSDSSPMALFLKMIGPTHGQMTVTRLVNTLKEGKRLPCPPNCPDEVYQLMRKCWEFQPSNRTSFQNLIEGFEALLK
Sequence of Tyrosine-protein kinase JAK1 (Mus musculus, UniProt P52332) (P52332 whole entry): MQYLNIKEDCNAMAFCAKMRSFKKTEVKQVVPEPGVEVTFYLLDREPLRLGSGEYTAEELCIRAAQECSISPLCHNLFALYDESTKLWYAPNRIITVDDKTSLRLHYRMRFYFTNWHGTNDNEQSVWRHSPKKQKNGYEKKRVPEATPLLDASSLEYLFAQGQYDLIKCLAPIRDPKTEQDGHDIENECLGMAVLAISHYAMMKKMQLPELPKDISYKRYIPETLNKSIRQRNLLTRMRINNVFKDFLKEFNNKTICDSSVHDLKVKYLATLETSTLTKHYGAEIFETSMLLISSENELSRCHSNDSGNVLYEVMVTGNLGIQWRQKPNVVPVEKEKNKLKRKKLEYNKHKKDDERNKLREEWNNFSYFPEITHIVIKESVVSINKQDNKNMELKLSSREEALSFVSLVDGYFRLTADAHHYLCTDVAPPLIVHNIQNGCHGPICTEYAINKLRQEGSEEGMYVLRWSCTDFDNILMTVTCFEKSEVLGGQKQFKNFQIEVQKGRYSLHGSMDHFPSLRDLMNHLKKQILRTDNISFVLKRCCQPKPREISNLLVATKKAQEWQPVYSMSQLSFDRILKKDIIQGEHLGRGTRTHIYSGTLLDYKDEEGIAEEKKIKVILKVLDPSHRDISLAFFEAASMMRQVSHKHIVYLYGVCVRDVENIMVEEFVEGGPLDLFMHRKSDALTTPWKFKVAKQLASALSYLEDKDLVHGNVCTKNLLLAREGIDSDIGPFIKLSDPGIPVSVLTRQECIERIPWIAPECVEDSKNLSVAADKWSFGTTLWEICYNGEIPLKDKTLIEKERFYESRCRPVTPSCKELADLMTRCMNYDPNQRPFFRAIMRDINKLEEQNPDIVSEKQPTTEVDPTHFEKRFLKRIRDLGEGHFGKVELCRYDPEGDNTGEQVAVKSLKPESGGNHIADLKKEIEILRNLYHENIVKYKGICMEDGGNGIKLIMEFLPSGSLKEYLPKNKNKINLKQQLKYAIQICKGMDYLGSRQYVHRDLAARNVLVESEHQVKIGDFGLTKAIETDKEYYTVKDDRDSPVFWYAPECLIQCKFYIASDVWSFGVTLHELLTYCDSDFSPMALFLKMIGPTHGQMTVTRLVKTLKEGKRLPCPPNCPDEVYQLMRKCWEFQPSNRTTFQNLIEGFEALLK

IC50 [1] | IC50 [2] | IC50 [3] | IC50 [4] | IC50 [5] | Structure (SMILES)
0.05 µM | – | – | – | – | NCCn1c(C2CCNCC2)nc2cc(C(N)=O)ccc21
– | 5.3 µM | 30.7 µM | 12.4 µM | – | NCCCn1c2ccc(C(N)=O)cc2nc1[C@H]1CC[C@H](O)CC1
– | 5.4 µM | 31 µM | 14.3 µM | – | NCCCn1c(C2CCNCC2)nc2cc(C(N)=O)ccc21
– | 0.08 µM | 4.3 µM | 1.8 µM | 3.2 µM | NC(=O)c1ccc2c(c1)nc([C@H]1CC[C@H](O)CC1)n2CCO
– | 2 µM | 25.7 µM | 8.5 µM | 12.1 µM | C[C@@H](O)Cn1c2ccc(C(N)=O)cc2nc1[C@H]1CC[C@H](O)CC1
– | 0.09 µM | 4.1 µM | 1.5 µM | 3.1 µM | CNCCn1c(C2CCNCC2)nc2cc(C(N)=O)ccc21
– | 7 µM | 42.2 µM | 20.6 µM | 29.7 µM | NC(=O)c1ccc2c(c1)nc([C@H]1CC[C@H](O)CC1)n2CCCO
– | 0.15 µM | 5.6 µM | 1.9 µM | 3.9 µM | CNCCn1c2ccc(C(N)=O)cc2nc1[C@H]1CC[C@H](O)CC1

From ChEMBL document CHEMBL3813615, “Novel JAK1-selective benzimidazole inhibitors with enhanced membrane permeability” (Bioorg Med Chem Lett, 2016)
